Experimental data: article PMC8398451, “Molecular Engineering of Curcumin, an Active Constituent of Curcuma longa L. (Turmeric) of the Family Zingiberaceae with Improved Antiproliferative Activity” (Plants, 2021)

Columns and labels:
MDA-MB-231 = assay: NCI antiproliferative SRB assay, Breast Cancer panel; assay type: cell-based
SNB-75 = assay: NCI antiproliferative SRB assay, CNS Cancer panel; assay type: cell-based, Human
786–0 = assay: NCI antiproliferative SRB assay, Renal Cancer panel; assay type: cell-based, Human
UACC-257 = assay: NCI antiproliferative SRB assay, Melanoma panel; assay type: cell-based, Human
MCF7 = assay: NCI antiproliferative SRB assay, Breast Cancer panel; assay type: cell-based, Human
TK-10 = assay: NCI antiproliferative SRB assay, Renal Cancer panel; assay type: cell-based, Human
HOP-62 = assay: NCI antiproliferative SRB assay, Non-Small Cell Lung Cancer panel; assay type: cell-based, Human
SF-295 = assay: NCI antiproliferative SRB assay, CNS Cancer panel; assay type: cell-based, Human
SW-620 = assay: NCI antiproliferative SRB assay, Colon Cancer panel; assay type: cell-based, Human
Melanoma cell line panel = assay: NCI antiproliferative assay, panel summary; assay type: cell-based, Human
K-562 = assay: NCI antiproliferative SRB assay, Leukemia panel; assay type: cell-based, Human
UACC-62 = assay: NCI antiproliferative SRB assay, Melanoma panel; assay type: cell-based, Human
DU-145 = assay: NCI antiproliferative SRB assay, Prostate Cancer panel; assay type: cell-based, Human
HL-60(TB) = assay: cells; assay type: cell-based
SK-OV-3 = assay: NCI antiproliferative SRB assay, Ovarian Cancer panel; assay type: cell-based, Human
[1] = Homo sapiens, 5-dose 0.01-100 µM, read-out: LC50 (the source's name)
[2] = Homo sapiens, 5-dose 0.01-100 µM

In the case of COc1ccc(NC(=O)n2nc(/C=C/c3ccc(O)c(OC)c3)cc2/C=C/c2ccc(O)c(OC)c2)cc1 [3b], the TGI (MDA-MB-231; 5-dose 0.01-100 µM) is reported as 83.5 µM, the GI50 (MDA-MB-231; Homo sapiens) is reported as 4.94 µM and the CC50 (MDA-MB-231; [1]) is reported as over 100 µM. The “%GI” value (MDA-MB-231; one dose 10 µM) was 63.47%, the “GP (growth percent)” value (MDA-MB-231; one dose 10 µM) was 36.53 and the TGI (SNB-75; 5-dose 0.01-100 µM) was 16.3 µM. For the same compound, the GI50 (SNB-75; [2]) was 2.35 µM, the CC50 (SNB-75; [1]) was over 100 µM and the “%GI” value (SNB-75; one dose 10 µM) was 67.39%. The “GP (growth percent)” value (SNB-75; one dose 10 µM) was 32.61, the TGI (786–0; 5-dose 0.01-100 µM) was 24.3 µM and the GI50 (786–0; [2]) was 4 µM. The CC50 (786–0; [1]) was over 100 µM, the “%GI” value (786–0; one dose 10 µM) was 67.92% and the “GP (growth percent)” value (786–0; one dose 10 µM) was 32.08. It also gave a TGI (UACC-257; 5-dose 0.01-100 µM) of 64.8 µM, a GI50 (UACC-257; [2]) of 16.7 µM and a CC50 (UACC-257; [1]) of over 100 µM. For the same compound, the “%GI” value (UACC-257; one dose 10 µM) was 24.78%, the “GP (growth percent)” value (UACC-257; one dose 10 µM) was 75.22 and the TGI (MCF7; 5-dose 0.01-100 µM) was 17.0 µM. The GI50 (MCF7; [2]) was 3.3 µM, the CC50 (MCF7; [1]) was over 100 µM and the “%GI” value (MCF7; one dose 10 µM) was 84.37%. The “GP (growth percent)” value (MCF7; one dose 10 µM) was 15.63, the TGI (TK-10; 5-dose 0.01-100 µM) was 95.3 µM and the GI50 (TK-10; [2]) was 10.2 µM. For the same compound, the CC50 (TK-10; [1]) was over 100 µM, the “%GI” value (TK-10; one dose 10 µM) was 36.16% and the “GP (growth percent)” value (TK-10; one dose 10 µM) was 63.84. It also gave a TGI (HOP-62; 5-dose 0.01-100 µM) of 42.8 µM, a GI50 (HOP-62; [2]) of 3.65 µM and a CC50 (HOP-62; [1]) of over 100 µM. The “%GI” value (HOP-62; one dose 10 µM) was 67.25%, the “GP (growth percent)” value (HOP-62; one dose 10 µM) was 32.75 and the TGI (SF-295; 5-dose 0.01-100 µM) was 53.2 µM. For the same compound, the GI50 (SF-295; [2]) was 6.25 µM, the CC50 (SF-295; [1]) was over 100 µM and the “%GI” value (SF-295; one dose 10 µM) was 48.38%. The “GP (growth percent)” value (SF-295; one dose 10 µM) was 51.62, the TGI (SW-620; 5-dose 0.01-100 µM) was 61.6 µM and the GI50 (SW-620; [2]) was 5.51 µM. For the same compound, the CC50 (SW-620; [1]) was over 100 µM, the “%GI” value (SW-620; one dose 10 µM) was 72.90% and the “GP (growth percent)” value (SW-620; one dose 10 µM) was 27.10. The “Mean % GI” value (Melanoma cell line panel; 10 µM) was 76.24%, the “Selectivity Ratio (MID a:MID b)” value (Melanoma cell line panel; 5-dose assay) was 1.06 and the GI50 (Melanoma cell line panel; Homo sapiens, 5-dose assay, read-out: Sub Panel MID b (mean GI50 of panel)) was 4.59 µM. The TGI (K-562; 5-dose 0.01-100 µM) was 16.9 µM, the GI50 (K-562; Homo sapiens, K562, 5-dose 0.01-100 µM) was 2.87 µM and the CC50 (K-562; Homo sapiens, K562, 5-dose 0.01-100 µM, read-out: LC50 (the source's name)) was over 100 µM. The “%GI” value (K-562; one dose 10 µM) was 90.75%, the “GP (growth percent)” value (K-562; one dose 10 µM) was 9.25 and the TGI (UACC-62; 5-dose 0.01-100 µM) was 6.91 µM. The GI50 (UACC-62; [2]) was 2.14 µM, the CC50 (UACC-62; [1]) was over 100 µM and the “%GI” value (UACC-62; one dose 10 µM) was 74.53%. For the same compound, the “GP (growth percent)” value (UACC-62; one dose 10 µM) was 25.47, the TGI (DU-145; 5-dose 0.01-100 µM) was 24.6 µM and the GI50 (DU-145; [2]) was 3.99 µM. The CC50 (DU-145; [1]) was over 100 µM, the “%GI” value (DU-145; one dose 10 µM) was 72.77% and the “GP (growth percent)” value (DU-145; one dose 10 µM) was 27.23. The TGI (HL-60(TB); 5-dose 0.01-100 µM) was 6.69 µM, the GI50 (HL-60(TB); [2]) was 2.55 µM and the CC50 (HL-60(TB); [1]) was over 100 µM. The “%GI” value (HL-60(TB); one dose 10 µM) was 94.68%, the “GP (growth percent)” value (HL-60(TB); one dose 10 µM) was 5.32 and the TGI (SK-OV-3; 5-dose 0.01-100 µM) was 27.5 µM. The GI50 (SK-OV-3; [2]) was 3.66 µM, the CC50 (SK-OV-3; [1]) was over 100 µM and the “%GI” value (SK-OV-3; one dose 10 µM) was 39.26%.
